Assay results: US20240246902A1, “PRODRUGS OF 6-DIAZO-5-OXO-L-NORLEUCINE” (THE JOHNS HOPKINS UNIVERSITY, priority 2021, published 2024)
Values after ≈ are worked out from the molar mass of the structure shown. Read-outs that look alike come from different tables or passages of the source.

Experiments:
[1] = Metabolic stability in swine liver tissue homogenate; format: in vitro ADME; conditions: prodrug 20 μM, 37° C.
Experimental: (§1) The representative Compounds of the Disclosure were screened for metabolic stability in swine jejunum/liver tissue homogenates, following our previously reported methods (Zimmermann et al., J. Med. Chem., 61(9):3918-29 (2018); Tenora et al., J. Med. Chem., 62(7):3524-38 (2019)). In brief, freshly collected tissues were homogenized by probe sonication in 9× volume of 0.1 M potassium phosphate buffer over ice. Post homogenization, prodrugs were spiked at a concentration of 20 μM (in triplicate) and incubated in an orbital shaker at 37° C. for 60 min. Final concentration of DMSO in the incubations was 0.2% v/v. At each time point (0, 30, 60 min), 100 μL of sample was precipitated with 300 μL of methanol containing internal standard (IS; losartan: 0.5 μM). […] After centrifugation, 50 μL of supernatant was diluted with 50 μL of water, vortexed and submitted for analysis. Prodrug disappearance over time was measured using liquid chromatography tandem mass spectrometry (LC-MS/MS).
(§2) The processed supernatants were analyzed on a Thermo Scientific Vanquish UPLC system (equipped with Vanquish autosampler, pumps, and column compartment) hyphenated to TSQ Altis mass spectrometer (Thermo Fisher Scientific Inc., Waltham MA). […] The autosampler was operated at 4° C. […] Peak area ratios obtained from peak area counts of analyte and internal standard were used to measure the disappearance of prodrugs.

[2] = Metabolic stability in swine jejunum (gut) tissue homogenate; format: in vitro ADME; conditions: prodrug 20 μM, 37° C.
Experimental: as §1, §2

[3] = Plasma stability, human plasma; format: in vitro ADME; conditions: HP = Human Plasma
[4] = Plasma stability, rat plasma; format: in vitro ADME; conditions: RP = Rat Plasma
[5] = Plasma stability, mouse plasma; conditions: MP = Mouse Plasma
[6] = Plasma stability, plasma from CES1KO mice; conditions: CES1KO = Mouse Plasma from CES1KO mice
[7] = not told

| Liver stability (% remaining at 60 min) [1] [%] | Gut Stability (% remaining at 60 min) [2] [%] | Efflux (Efflux) | solubility (Solubility) [µg/mL] | Plasma Stability (% remaining at 60 min) [5] | SMILES | further results |
| --- | --- | --- | --- | --- | --- | --- |
| 80 ± 3 | 79 ± 4 | 33 | 170 (≈ 0.341 mM) | 68 ± 2 (MP) % | CN(C)CC(=O)N[C@@H](Cc1c[nH]c2ccccc12)C(=O)N[C@@H](CCC(=O)C=[N+]=[N-])C(=O)OC(C)(C)C [Compound 11b, tert-Butyl (S)-6-diazo-2-((S)-2-(2-(dimethylamino)acetamido)-3-(1H-indol-3-yl)propanamido)-5-oxohexanoate] | Plasma Stability (% remaining at 60 min) [3]: 101 ± 0 (HP) %; Plasma Stability (% remaining at 60 min) [4]: 3 ± 0 (RP) % |
| 81 ± 2 | 90 ± 1 | 48 | – | 67 ± 1 (MP) % | CN(C)CC(=O)N[C@@H](Cc1ccccc1)C(=O)N[C@@H](CCC(=O)C=[N+]=[N-])C(=O)OC(C)(C)C [Compound 15a, tert-Butyl (S)-6-diazo-2-((S)-2-(2-(dimethylamino)acetamido)-3-phenylpropanamido)-5-oxohexanoate] | Plasma Stability (% remaining at 60 min) [6]: 93 ± 1 (ces1KO MP) % |
| – | – | – | – | – | COCCOCCOC(=O)[C@H](CCC(=O)C=[N+]=[N-])NC(=O)[C@H](Cc1c[nH]c2ccccc12)NC(=O)CN(C)C [Compound 30b, 2-(2-Methoxyethoxy)ethyl (S)-6-diazo-2-((S)-2-(2-(dimethylamino)acetamido)-3-(1H-indol-3-yl)propanamido)-5-oxohexanoate] | Plasma Stability (% remaining at 60 min) [3]: 42 ± 1 (HP) % |
| – | – | – | – | – | Cn1cc(C[C@H](NC(=O)C2CN3CCC2CC3)C(=O)N[C@@H](CCC(=O)C=[N+]=[N-])C(=O)OC(C)(C)C)c2ccccc21 (stereo partly drawn) [Compound 12c, tert-Butyl (2S)-6-diazo-2-((2S)-3-(1-methyl-1H-indol-3-yl)-2-(quinuclidine-3-carboxamido)propanamido)-5-oxohexanoate] | Efflux [7]: 5.37 |
| 0 ± 0 | – | 49 | – | – | CC(C)OC(=O)[C@H](CCC(=O)C=[N+]=[N-])NC(=O)[C@H](Cc1c[nH]c2ccccc12)NC(=O)C(Cl)Cl [Compound 8n, Isopropyl (S)-6-diazo-2-((S)-2-(2,2-dichloroacetamido)-3-(1H-indol-3-yl)propanamido)-5-oxohexanoate] | Plasma Stability (% remaining at 60 min) [6]: 69 ± 3 (ces1KO) % |
| 0 ± 0 | – | – | ~5000 (≈ 15.7 mM) | – | CC(C)OC(=O)[C@H](CCC(=O)C=[N+]=[N-])NC(=O)c1cccnc1 [Compound 5f, Isopropyl (S)-6-diazo-2-(nicotinamido)-5-oxohexanoate] | – |
| 78 ± 1 | 104 ± 0 | – | ~4000 (≈ 12 mM) | – | CC(C)(C)OC(=O)[C@H](CCC(=O)C=[N+]=[N-])NC(=O)c1cccnc1 [Compound 5j, tert-Butyl (S)-6-diazo-2-(nicotinamido)-5-oxohexanoate] | – |
| – | – | – | – | – | CC(C)(C)OC(=O)[C@H](CCC(=O)C=[N+]=[N-])NC(=O)[C@H](Cc1ccccc1)NC(=O)C12CCN(CC1)CC2 [Compound 15b, tert-Butyl (S)-6-diazo-5-oxo-2-((S)-3-phenyl-2-(quinuclidine-4-carboxamido)propanamido)hexanoate] | Efflux [7]: 7.31 |
| 12 ± 1 | – | – | ~5000 (≈ 17.6 mM) | – | CCCC(=O)N[C@@H](CCC(=O)C=[N+]=[N-])C(=O)OC(C)C [Compound 5b, Isopropyl (S)-2-butyramido-6-diazo-5-oxohexanoate] | – |
| – | – | – | – | – | CC(C)(C)OC(=O)[C@H](CCC(=O)C=[N+]=[N-])NC(=O)[C@H](Cc1c[nH]c2ccccc12)NC(=O)C12CCN(CC1)CC2 [Compound 11d, tert-Butyl (S)-2-((S)-3-(1H-indol-3-yl)-2-(quinuclidine-4-carboxamido)propanamido)-6-diazo-5-oxohexanoate] | Efflux [7]: 2; solubility (physchem): 4300 µg/mL (≈ 7.81 mM) |
| – | – | – | – | – | CC(C)(C)OC(=O)[C@H](CCC(=O)C=[N+]=[N-])NC(=O)CNC(=O)C12CCN(CC1)CC2 [Compound 14d, tert-Butyl (S)-6-diazo-5-oxo-2-(2-(quinuclidine-4-carboxamido)acetamido)hexanoate] | Efflux [7]: 1.48 |
| 58 ± 2 | 79 ± 7 | 1 | – | 6 ± 1 (MP % | CC(=O)N[C@@H](Cc1c[nH]c2ccccc12)C(=O)N[C@@H](CCC(=O)C=[N+]=[N-])C(N)=O [Compound 31a, (S)-2-((S)-2-Acetamido-3-(1H-indol-3-yl)propanamido)-6-diazo-5-oxohexanamide] | Plasma Stability (% remaining at 60 min) [3]: 100 ± 2 (HP) % |
| 72 ± 0 | – | 32.76 | – | 79 ± 2 (MP) % | CN(C)CC(=O)N[C@@H](Cc1ccc(C(F)(F)F)cc1)C(=O)N[C@@H](CCC(=O)C=[N+]=[N-])C(=O)OC(C)(C)C [Compound 23a, tert-Butyl (S)-6-diazo-2-((S)-2-(2-(dimethylamino)acetamido)-3-(4-(trifluoromethyl)phenyl)propanamido)-5-oxohexanoate] | Plasma Stability (% remaining at 60 min) [6]: 70 ± 14 (Ces1KO) % |
| – | – | – | – | – | Cn1cc(C[C@H](NC(=O)CCCNC(=O)C23CCN(CC2)CC3)C(=O)N[C@@H](CCC(=O)C=[N+]=[N-])C(=O)OC(C)(C)C)c2ccccc21 [Compound 12g, tert-Butyl (S)-6-diazo-2-((S)-3-(1-methyl-1H-indol-3-yl)-2-(4-(quinuclidine-4-carboxamido)butanamido)propanamido)-5-oxohexanoate] | Efflux [7]: 1 |
| – | 11 ± 1 | 23 | 240 (≈ 0.544 mM) | 0 ± 0 (MP) % | CC(=O)N[C@@H](Cc1c[nH]c2ccccc12)C(=O)N[C@@H](CCC(=O)C=[N+]=[N-])C(=O)OC(C)C [13′, reference compound] | Plasma Stability (% remaining at 60 min) [3]: 96 ± 3 (HP) %; Plasma Stability (% remaining at 60 min) [6]: 94 ± 1 (ces1KO) % |

| SMILES | Liver stability (% remaining at 60 min) [1] [%] | Gut Stability (% remaining at 60 min) [2] [%] | Efflux (Efflux) | solubility (Solubility) [µg/mL] | Plasma Stability (% remaining at 60 min) [5] | further results |
| --- | --- | --- | --- | --- | --- | --- |
| CN(C)CC(=O)N[C@@H](Cc1cccnc1)C(=O)N[C@@H](CCC(=O)C=[N+]=[N-])C(=O)OC(C)(C)C [Compound 17b, tert-Butyl (S)-6-diazo-2-((S)-2-(2-(dimethylamino)acetamido)-3-(pyridin-3-yl)propanamido)-5-oxohexanoate] | 91 ± 1 | 98 ± 1 | 57 | ~10000 (≈ 21.7 mM) | 82 ± 6 (MP) % | Plasma Stability (% remaining at 60 min) [3]: 96 ± 3 (HP) %; Plasma Stability (% remaining at 60 min) [4]: 33 ± 2 (RP) % |
| CN(C)CC(=O)NCC(=O)N[C@@H](CCC(=O)C=[N+]=[N-])C(=O)OC(C)(C)C [Compound 14b, tert-Butyl (S)-6-diazo-2-(2-(2-(dimethylamino)acetamido)acetamido)-5-oxohexanoate] | 90 ± 0 | 99 ± 2 | 33 | ~10000 (≈ 27.1 mM) | 73 ± 2 (MP) % | Plasma Stability (% remaining at 60 min) [3]: 100 ± 5 (HP) % |
| Cn1cc(C[C@H](NC(=O)OC2CN3CCC2CC3)C(=O)N[C@@H](CCC(=O)C=[N+]=[N-])C(=O)OC(C)(C)C)c2ccccc21 (stereo partly drawn) [Compound 12d, tert-Butyl (2S)-6-diazo-2-((2S)-3-(1-methyl-1H-indol-3-yl)-2-(((quinuclidin-3-yloxy)carbonyl)amino)propanamido)-5-oxohexanoate] | 89 ± 1 | – | – | – | 10 ± 2 (MP) % | Efflux (Efflux; not told): 65.59; Plasma Stability (% remaining at 60 min) [6]: 88 ± 2 (Ces1KO) % |
| CN(C)CC(=O)N[C@H](C(=O)N[C@@H](CCC(=O)C=[N+]=[N-])C(=O)OC(C)(C)C)c1ccccc1 [Compound 19a, tert-Butyl (S)-6-diazo-2-((S)-2-(2-(dimethylamino)acetamido)-2-phenylacetamido)-5-oxohexanoate] | 82 ± 0 | – | – | – | – | Efflux [7]: 24.37 |
| CN(C)CC(=O)N[C@@H](CCc1ccccc1)C(=O)N[C@@H](CCC(=O)C=[N+]=[N-])C(=O)OC(C)(C)C [Compound 20a, tert-Butyl (S)-6-diazo-2-((S)-2-(2-(dimethylamino)acetamido)-4-phenylbutanamido)-5-oxohexanoate] | 69 ± 1 | – | 61.35 | – | 60 ± 7 (MP) % | Plasma Stability (% remaining at 60 min) [6]: 102 ± 2 (ces1KO) % |
| CCCCCC(=O)N[C@@H](CCC(=O)C=[N+]=[N-])C(=O)OC(C)C [Compound 5c, Isopropyl (S)-6-diazo-2-hexanamido-5-oxohexanoate] | 0 ± 0 | – | – | ~2000 (≈ 6.42 mM) | – | – |
